Data published in patent US20230233425A1, “USE OF VOLATILE COMPOSITIONS TO LIMIT OR ELIMINATE THE PERCEPTION OF MALODOR” (Firmenich SA, priority 2017, published 2023).
Marks after values point to notes of the source that are not given here. Blank lines part the entries; values can stand above or below the molecule they belong to.

Key:
[1] = system: OR11A1, or the OR2M3 olfactory receptor; experiment: Geonol olfactory receptor antagonist cell-based screening, inhibitory dose-response vs geonol EC80; design: species or system human; details: geonol at EC80; for IC50: read-out: IC50
[2] = target: T1, OR51E1 olfactory receptor (Homo sapiens, UniProt Q8TCB6); experiment: Butyric acid olfactory receptor antagonist cell-based dose-response vs butyric acid EC80; details: butyric acid at EC80; Table 5
T1 construct: expressed in transfected cells
T1 sequence (Q8TCB6 1-318): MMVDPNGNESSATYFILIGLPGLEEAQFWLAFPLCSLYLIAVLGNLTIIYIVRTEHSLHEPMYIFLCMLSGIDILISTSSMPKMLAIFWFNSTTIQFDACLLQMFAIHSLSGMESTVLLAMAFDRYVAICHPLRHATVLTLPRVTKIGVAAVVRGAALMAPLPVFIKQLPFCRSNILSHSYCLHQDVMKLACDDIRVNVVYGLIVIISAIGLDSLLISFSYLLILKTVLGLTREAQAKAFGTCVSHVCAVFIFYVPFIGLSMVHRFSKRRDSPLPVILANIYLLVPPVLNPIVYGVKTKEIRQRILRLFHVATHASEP

[3] = system: 1-octen-3-ol mushroom/earthy/fungal odor perception; experiment: Human sensory performance of test compounds with and without 1-octen-3-ol; assay type: in vivo; details: for % Mushroom/Earthy/Fungal Odor: Test Compound Only
[4] = system: OR2W1 or the OR1A1 olfactory receptor; experiment: 1-octen-3-ol olfactory receptor antagonist cell-based dose-response vs 1-octen-3-ol EC80; details: for IC50: 1-octen-3-ol at EC80; for % Inhibition: maximum inhibition normalized to baseline agonist activity
Source text: Each cell line was screened with a volatile compound library for their inhibitory properties and potential 1-octen-3-ol smell inhibition.
Single concentration monitoring of the 1-octen-3-ol induced cell activity in the presence or absence of a test compound allowed for the identification of compounds with a putative suppression or inhibitory effect.

[5] = system: geonol malodor (earthy/moss odor) perception; experiment: Sensory evaluation of geonol earthy/moss odor in iso-intense binary mixtures (glass jars); assay type: in vivo, human; details: iso-intense binary mixture
Source text: (§1) Sensory Evaluation: Five 16 oz glass jars containing either REF (geonol only), geonol only control, antagonist only, mixture of geonol and isointense antagonist, or mixture of geonol and low intensity antagonist were presented to the panelists (last four samples were randomized across panelists). The panelists were asked to familiarize themselves with the earthy/moss odor quality from the REF jar first, then rate the pleasantness, earthy/moss odor intensity and overall odor intensity of the next four samples on a 0-10 linear scale. The inter-stimulus interval between the samples was two minutes to avoid adaptation.

[6] = system: geonol earthy/moss odor perception; experiment: Human sensory performance of test compounds with and without geonol; assay type: in vivo; details: for % Earthy/Moss Odor: Test Compound Only
Source text: as §1, with “adaptation. […]” for “adaptation.”
The results are shown in Tables 16 and 17, and FIGS. 3 to 5.

[7] = system: geonol receptors Olfr339, Olfr1487, Olfr1A1, OR11A1, Olfr96; experiment: Antagonists of geonol receptors (Example 11); assay type: cell-based, mouse and human; design: Inhibition(%): concentration or dose not given beside the values; details: Table 18
Olfr738 = Olfr738 (Mus musculus, UniProt L7N1X7); experiment: Indole antagonist dose-response, cAMP HTRF in HEK293T, vs indole EC80; assay type: cell-based; details: vs indole EC80
Chain of Olfr738 (L7N1X7 entry or part of it): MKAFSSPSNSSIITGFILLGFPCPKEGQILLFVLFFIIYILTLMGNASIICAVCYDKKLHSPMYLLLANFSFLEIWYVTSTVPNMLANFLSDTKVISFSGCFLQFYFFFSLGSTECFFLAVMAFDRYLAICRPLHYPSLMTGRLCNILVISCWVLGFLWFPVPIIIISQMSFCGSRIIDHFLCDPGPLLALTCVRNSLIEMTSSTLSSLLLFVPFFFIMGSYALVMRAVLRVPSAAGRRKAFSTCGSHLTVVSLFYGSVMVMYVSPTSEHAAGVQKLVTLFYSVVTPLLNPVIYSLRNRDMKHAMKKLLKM
Procedure: (§2) Using a cell-based assay, mouse receptor Olfr738, Olfr739, Olfr740, Olfr741, 0fr742, Olfr743, Olfr744, Olfr746, Olfr748 and Olfr749 were tested in an HEK293T cell line wherein the endogenous RTP1 gene has been activated and the odorant receptor chaperone was expressed (described in WO2016201153A1). The receptor genes were tagged with a Flag-Rho tag combination. Receptor genes were co-transfected with the canonical olfactory human G-protein alpha subunit Golf gene. Co-expression of the human Golf activates the Gs transduction pathway that leads to an internal cAMP increase upon binding to the appropriate ligand (indole here). Odorant-induced activity was detected by measuring the cAMP increase in the cytosol using an HTRF based kit (CisBio, cAMP dynamic 2 kit, cat. 62AM4PEJ).

Olfr740 = Olfr740 (Mus musculus, UniProt E9PV79); experiment: as above; assay type: cell-based; details: vs indole EC80; for Emax: HEK-293T, Table 22, first listing, read-out: Olfr740 % Inhibition; for IC50: Table 22, first listing (r7-r45), read-out: Olfr740 IC50
Chain of Olfr740 (E9PV79 entry or part of it): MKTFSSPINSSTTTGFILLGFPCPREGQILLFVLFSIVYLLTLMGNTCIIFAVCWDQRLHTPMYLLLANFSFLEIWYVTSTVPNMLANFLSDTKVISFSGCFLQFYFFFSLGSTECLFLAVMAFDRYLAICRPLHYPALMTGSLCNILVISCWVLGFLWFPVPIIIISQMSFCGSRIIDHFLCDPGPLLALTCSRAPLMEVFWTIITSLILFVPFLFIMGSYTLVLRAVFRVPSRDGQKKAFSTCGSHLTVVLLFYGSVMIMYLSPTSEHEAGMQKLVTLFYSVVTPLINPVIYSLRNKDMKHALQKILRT
Procedure: as §2

Olfr741 = Olfr741 (Mus musculus, UniProt L7N1Y5); experiment: as above; assay type: cell-based; details: Table 22, first listing
Chain of Olfr741 (L7N1Y5 entry or part of it): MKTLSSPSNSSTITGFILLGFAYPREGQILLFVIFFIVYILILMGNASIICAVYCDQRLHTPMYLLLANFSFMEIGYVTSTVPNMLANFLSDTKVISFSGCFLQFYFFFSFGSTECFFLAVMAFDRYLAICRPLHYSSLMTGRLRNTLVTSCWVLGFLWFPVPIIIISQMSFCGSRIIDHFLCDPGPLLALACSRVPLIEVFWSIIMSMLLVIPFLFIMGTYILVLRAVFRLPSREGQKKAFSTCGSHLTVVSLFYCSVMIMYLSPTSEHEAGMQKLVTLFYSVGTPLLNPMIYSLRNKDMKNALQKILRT
Procedure: as §2

Olfr742 = Olfr742 (Mus musculus, UniProt A2RTP5); experiment: as above; assay type: cell-based; details: vs indole EC80; for Emax: HEK-293T, Table 22, first listing, read-out: Olfr742 % Inhibition; for IC50: Table 22, first listing (r7-r45), read-out: Olfr742 IC50
Chain of Olfr742 (A2RTP5 entry or part of it): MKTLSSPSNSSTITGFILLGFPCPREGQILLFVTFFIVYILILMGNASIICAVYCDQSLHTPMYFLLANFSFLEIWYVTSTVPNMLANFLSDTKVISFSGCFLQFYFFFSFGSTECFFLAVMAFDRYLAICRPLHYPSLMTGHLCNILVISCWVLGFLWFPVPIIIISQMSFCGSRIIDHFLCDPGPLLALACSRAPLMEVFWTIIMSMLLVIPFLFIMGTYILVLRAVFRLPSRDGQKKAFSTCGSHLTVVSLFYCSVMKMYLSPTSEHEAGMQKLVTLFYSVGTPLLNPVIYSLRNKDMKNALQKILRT
Procedure: as §2

[8] = Low Dilution Test Compound + 1-octen-3-ol (0.15%)
[9] = Medium Dilution Test Compound + 1-octen-3-ol (0.15%)

IC50 [1]: 301 µM
IC50 [2]: 101 µM
IC50 [4]: 82.4 µM
Molecule: 1-(4,8-dimethyl-12-methylidenecyclododeca-4,8-dien-1-yl)ethanone; 1-(2,6,10-trimethylcyclododeca-1,5,9-trien-1-yl)ethanone; 1-(2,6,10-trimethylcyclododeca-2,5,9-trien-1-yl)ethanone
% Inhibition [1]: 20%
% Mushroom/Earthy/Fungal Odor Remaining [3, 8]: 88.90%
% Mushroom/Earthy/Fungal Odor Remaining [3, 9]: 68.50%
% Mushroom/Earthy/Fungal Odor [3]: 26.70%
% Inhibition [4]: 113.23%

IC50 [7]: 136 µM
IC50 [4]: 24.2 µM
Molecule: O=C1CCCCCCCCCCC(=O)OCCO1 [1,4-dioxacyclohexadecane-5,16-dione]
% Mushroom/Earthy/Fungal Odor [3]: 14.90%
Inhibition(%) [7]: 33%
% Inhibition [4]: 116.54%

Emax (Olfr740): 100%
IC50 (Olfr740): 51.2 µM
Molecule: CC1CC(C)(c2ccccc2)CO1 (stereo not shown) [2,4-dimethyl-4-phenyloxolane]

IC50 [4]: 18.8 µM
Molecule: CC1=CC(C)C(C=O)CC1 (stereo not shown) [2,4-dimethylcyclohex-3-enecarbaldehyde]
% Remaining in human sensory tests [5]: 45* %
% Inhibition [4]: 107.99%

Emax (Olfr742): 37.2%
IC50 (Olfr742): 88.2 µM
Molecule: Cc1ccc(CC(C)C=O)cc1 (stereo not shown) [2-methyl-3-(4-methylphenyl) propanal]

Emax (Olfr740): 110%
IC50 (Olfr740): 16.1 µM
Molecule: CC(CC=O)CCc1ccccc1 (stereo not shown) [3-methyl-5-phenylpentanal]

The next lines start with the molecule.

Molecule: 3-methyl-4-(2,6,6-trimethylcyclohex-2-en-1-yl)but-3-en-2-one; 1-(2,6,6-trimethylcyclohex-2-en-1-yl)pent-1-en-3-one
% Remaining in human sensory tests [5]: 38* %
% Earthy/Moss Odor Remaining ([6]; Low Dilution Test Compound + Geonol (0.1%)): 75.80%
% Earthy/Moss Odor Remaining ([6]; Medium Dilution Test Compound + Geonol (0.1%)): 56.20%
% Earthy/Moss Odor [6]: 29.40%
% Mushroom/Earthy/Fungal Odor Remaining [3, 8]: 75.80%
% Mushroom/Earthy/Fungal Odor Remaining [3, 9]: 53.50%
% Mushroom/Earthy/Fungal Odor [3]: 20.00%

Molecule: CC1CCCCCCCCCCCCC(=O)C1 (racemic) [(+−)-3-methylcyclopentadecanone]
IC50 [2]: 159 µM
% Mushroom/Earthy/Fungal Odor [3]: 11.60%
IC50 [4]: 44 µM
% Inhibition [4]: 113.50%

Molecule: CC1C(C)(C)C2=C(C(=O)CCC2)C1(C)C (stereo not shown) [1,1,2,3,3-pentamethyl-2,5,6,7-tetrahydroinden-4-one]
% Mushroom/Earthy/Fungal Odor [3]: 25.90%
IC50 [7]: 268 µM
Inhibition(%) [7]: 71%
IC50 (Olfr738; Table 22, first listing (r7-r45), read-out: Olfr738 IC50): 21.3 µM
Olfr738 % Inhibition (Olfr738; Table 22, first listing): 61.33%
Emax (Olfr740): 217%
IC50 (Olfr740): 12 µM
IC50 (Olfr741): 2560 µM
Olfr741 % Inhibition (Olfr741): 140.61%
Emax (Olfr742): 120%
IC50 (Olfr742): 249 µM
IC50 [4]: 51.2 µM
% Inhibition [4]: 118.44%

Molecule: CC1C(=O)c2ccccc2C1(C)C (stereo not shown) [2,3,3-trimethyl-2~{H}-inden-1-one]
% Mushroom/Earthy/Fungal Odor Remaining [3, 8]: 94.40%
% Mushroom/Earthy/Fungal Odor Remaining [3, 9]: 57.90%
% Mushroom/Earthy/Fungal Odor [3]: 16.50%

Molecule: CC(=CC=O)CCC(C)=C(C)C [3,6,7-trimethylocta-2,6-dienal]
% Earthy/Moss Odor [6]: 26.90%
% Mushroom/Earthy/Fungal Odor [3]: 16.40%

Molecule: CC(C)=CCCC(C)=CC=O [3,7-dimethylocta-2,6-dienal]
% Remaining in human sensory tests [5]: 42* %
% Earthy/Moss Odor [6]: 27.60%
% Mushroom/Earthy/Fungal Odor [3]: 22.30%

Molecule: CC(C)(C)c1ccc(CCC=O)cc1 [3-(4-tert-butylphenyl)propanal]
% Inhibition [1]: 50%
IC50 [1]: 316 µM

Molecule: CC(CC=O)c1ccccc1 (stereo not shown) [3-phenylbutanal]
Emax (Olfr742): 113%
IC50 (Olfr742): 44.8 µM
